{"source": "the supplement of paper PMC10307832", "experiment_in_all_cases": "relative viability (nuclei count vs DMSO), 5 days (fraction); higher = more cells survive", "key": {"[1]": {"tested_on": "NCI-H1666", "in_short": "(§1)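 The day after seeding in 1536-well plates, lung cancer cell lines were treated by pin tool with a single drug, or with a fixed anchor-drug dose together with five library-drug doses (not always all listed) in √10 steps. After 5 days, a combined fix-and-stain solution (final 0.05% Triton X-100, 1% formaldehyde, 1 ug/ml Hoechst) was added. Nuclei counted on 4× images gave relative viability as treated counts over vehicle counts, reported as the median of duplicate plates.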"}, "[2]": {"tested_on": "NCI-H358", "in_short": "as §1"}, "[3]": {"tested_on": "NCI-H661", "in_short": "as §1"}, "[4]": {"tested_on": "SK-MES-1", "in_short": "as §1"}, "[5]": {"tested_on": "PC-3 [JPC-3]", "in_short": "as §1"}, "[6]": {"tested_on": "NCI-H596", "in_short": "as §1"}, "[7]": {"tested_on": "HCC-15", "in_short": "as §1"}, "[8]": {"tested_on": "NCI-H1651", "in_short": "as §1"}, "[9]": {"tested_on": "UMC-11", "in_short": "as §1"}, "[10]": {"tested_on": "LXF-289", "in_short": "as §1"}, "[11]": {"tested_on": "BEN", "in_short": "as §1"}, "[12]": {"tested_on": "NCI-H2087", "in_short": "as §1"}, "[13]": {"tested_on": "HCC-78", "in_short": "as §1"}, "[14]": {"tested_on": "NCI-H322M", "in_short": "as §1"}, "[15]": {"tested_on": "NCI-H650", "in_short": "as §1"}, "[16]": {"tested_on": "NCI-H1944", "in_short": "as §1"}, "[17]": {"tested_on": "LCLC-97TM1", "in_short": "as §1"}, "[18]": {"tested_on": "LU99A", "in_short": "as §1"}, "[19]": {"tested_on": "NCI-H838", "in_short": "as §1"}, "[20]": {"tested_on": "LC-2-ad", "in_short": "as §1"}, "[21]": {"tested_on": "LK-2", "in_short": "as §1"}}}
{"smiles": "CC1(C)CCC(c2ccc(Cl)cc2)=C(CN2CCN(c3ccc(C(=O)NS(=O)(=O)c4ccc(N[C@H](CCN5CCOCC5)CSc5ccccc5)c(S(=O)(=O)C(F)(F)F)c4)cc3)CC2)C1", "note": "[Navitoclax] + Cc1nc(NC(=O)N2CCC[C@H]2C(N)=O)sc1-c1ccnc(C(C)(C)C(F)(F)F)c1 [Alpelisib] (partner 2 µM)", "values": [{"measurement": "relative viability", "setting": "[1]; first compound 0.005 µM", "value": 1.03}, {"measurement": "relative viability", "setting": "[1]; first compound 0.01581 µM", "value": 0.944}, {"measurement": "relative viability", "setting": "[1]; first compound 0.05 µM", "value": 1.06}, {"measurement": "relative viability", "setting": "[1]; first compound 0.1581 µM", "value": 0.878}, {"measurement": "relative viability", "setting": "[1]; first compound 0.5 µM", "value": 0.958}, {"measurement": "relative viability", "setting": "[2]; first compound 0.005 µM", "value": 0.817}, {"measurement": "relative viability", "setting": "[2]; first compound 0.01581 µM", "value": 0.955}, {"measurement": "relative viability", "setting": "[2]; first compound 0.05 µM", "value": 1.01}, {"measurement": "relative viability", "setting": "[2]; first compound 0.1581 µM", "value": 1.04}, {"measurement": "relative viability", "setting": "[2]; first compound 0.5 µM", "value": 0.856}, {"measurement": "relative viability", "setting": "[3]; first compound 0.005 µM", "value": 0.438}, {"measurement": "relative viability", "setting": "[3]; first compound 0.01581 µM", "value": 0.468}, {"measurement": "relative viability", "setting": "[3]; first compound 0.05 µM", "value": 0.479}, {"measurement": "relative viability", "setting": "[3]; first compound 0.1581 µM", "value": 0.465}, {"measurement": "relative viability", "setting": "[3]; first compound 0.5 µM", "value": 0.673}, {"measurement": "relative viability", "setting": "[4]; first compound 0.005 µM", "value": 0.761}, {"measurement": "relative viability", "setting": "[4]; first compound 0.01581 µM", "value": 1.01}, {"measurement": "relative viability", "setting": "[4]; first compound 0.05 µM", "value": 0.922}, {"measurement": "relative viability", "setting": "[4]; first compound 0.1581 µM", "value": 0.827}, {"measurement": "relative viability", "setting": "[4]; first compound 0.5 µM", "value": 1.04}, {"measurement": "relative viability", "setting": "[5]; first compound 0.005 µM", "value": 1.04}, {"measurement": "relative viability", "setting": "[5]; first compound 0.01581 µM", "value": 1.02}, {"measurement": "relative viability", "setting": "[5]; first compound 0.05 µM", "value": 1.02}, {"measurement": "relative viability", "setting": "[5]; first compound 0.1581 µM", "value": 1.03}, {"measurement": "relative viability", "setting": "[5]; first compound 0.5 µM", "value": 1.06}, {"measurement": "relative viability", "setting": "[6]; first compound 0.005 µM", "value": 0.515}, {"measurement": "relative viability", "setting": "[6]; first compound 0.01581 µM", "value": 0.481}, {"measurement": "relative viability", "setting": "[6]; first compound 0.05 µM", "value": 0.399}, {"measurement": "relative viability", "setting": "[6]; first compound 0.1581 µM", "value": 0.57}, {"measurement": "relative viability", "setting": "[6]; first compound 0.5 µM", "value": 0.408}, {"measurement": "relative viability", "setting": "[7]; first compound 0.005 µM", "value": 0.879}, {"measurement": "relative viability", "setting": "[7]; first compound 0.01581 µM", "value": 0.957}, {"measurement": "relative viability", "setting": "[7]; first compound 0.05 µM", "value": 0.88}, {"measurement": "relative viability", "setting": "[7]; first compound 0.1581 µM", "value": 0.882}, {"measurement": "relative viability", "setting": "[7]; first compound 0.5 µM", "value": 0.764}, {"measurement": "relative viability", "setting": "[8]; first compound 0.005 µM", "value": 0.929}, {"measurement": "relative viability", "setting": "[8]; first compound 0.01581 µM", "value": 0.899}, {"measurement": "relative viability", "setting": "[8]; first compound 0.1581 µM", "value": 1}, {"measurement": "relative viability", "setting": "[8]; first compound 0.5 µM", "value": 0.946}, {"measurement": "relative viability", "setting": "[9]; first compound 0.005 µM", "value": 0.961}, {"measurement": "relative viability", "setting": "[9]; first compound 0.01581 µM", "value": 1.02}, {"measurement": "relative viability", "setting": "[9]; first compound 0.1581 µM", "value": 0.979}, {"measurement": "relative viability", "setting": "[9]; first compound 0.5 µM", "value": 0.623}, {"measurement": "relative viability", "setting": "[10]; first compound 0.005 µM", "value": 1.02}, {"measurement": "relative viability", "setting": "[10]; first compound 0.01581 µM", "value": 1.03}, {"measurement": "relative viability", "setting": "[10]; first compound 0.05 µM", "value": 0.921}, {"measurement": "relative viability", "setting": "[10]; first compound 0.1581 µM", "value": 1.02}, {"measurement": "relative viability", "setting": "[10]; first compound 0.5 µM", "value": 1.08}, {"measurement": "relative viability", "setting": "[11]; first compound 0.005 µM", "value": 0.983}, {"measurement": "relative viability", "setting": "[11]; first compound 0.01581 µM", "value": 1.13}, {"measurement": "relative viability", "setting": "[11]; first compound 0.05 µM", "value": 1.02}, {"measurement": "relative viability", "setting": "[11]; first compound 0.1581 µM", "value": 1.08}, {"measurement": "relative viability", "setting": "[11]; first compound 0.5 µM", "value": 0.831}, {"measurement": "relative viability", "setting": "[12]; first compound 0.005 µM", "value": 1.25}, {"measurement": "relative viability", "setting": "[12]; first compound 0.01581 µM", "value": 1.17}, {"measurement": "relative viability", "setting": "[12]; first compound 0.05 µM", "value": 1.03}, {"measurement": "relative viability", "setting": "[12]; first compound 0.1581 µM", "value": 1.05}, {"measurement": "relative viability", "setting": "[12]; first compound 0.5 µM", "value": 1.08}, {"measurement": "relative viability", "setting": "[13]; first compound 0.005 µM", "value": 0.309}, {"measurement": "relative viability", "setting": "[13]; first compound 0.01581 µM", "value": 0.352}, {"measurement": "relative viability", "setting": "[13]; first compound 0.1581 µM", "value": 0.341}, {"measurement": "relative viability", "setting": "[13]; first compound 0.5 µM", "value": 0.339}, {"measurement": "relative viability", "setting": "[14]; first compound 0.005 µM", "value": 0.644}, {"measurement": "relative viability", "setting": "[14]; first compound 0.01581 µM", "value": 0.772}, {"measurement": "relative viability", "setting": "[14]; first compound 0.05 µM", "value": 0.931}, {"measurement": "relative viability", "setting": "[14]; first compound 0.1581 µM", "value": 0.791}, {"measurement": "relative viability", "setting": "[14]; first compound 0.5 µM", "value": 0.591}, {"measurement": "relative viability", "setting": "[15]; first compound 0.005 µM", "value": 1.1}, {"measurement": "relative viability", "setting": "[15]; first compound 0.01581 µM", "value": 1.15}, {"measurement": "relative viability", "setting": "[15]; first compound 0.05 µM", "value": 1.15}, {"measurement": "relative viability", "setting": "[15]; first compound 0.1581 µM", "value": 1.11}, {"measurement": "relative viability", "setting": "[15]; first compound 0.5 µM", "value": 1.16}, {"measurement": "relative viability", "setting": "[16]; first compound 0.005 µM", "value": 0.832}, {"measurement": "relative viability", "setting": "[16]; first compound 0.01581 µM", "value": 0.863}, {"measurement": "relative viability", "setting": "[16]; first compound 0.05 µM", "value": 0.786}, {"measurement": "relative viability", "setting": "[16]; first compound 0.1581 µM", "value": 0.836}, {"measurement": "relative viability", "setting": "[16]; first compound 0.5 µM", "value": 0.82}, {"measurement": "relative viability", "setting": "[17]; first compound 0.005 µM", "value": 0.335}, {"measurement": "relative viability", "setting": "[17]; first compound 0.01581 µM", "value": 0.328}, {"measurement": "relative viability", "setting": "[17]; first compound 0.05 µM", "value": 0.241}, {"measurement": "relative viability", "setting": "[17]; first compound 0.1581 µM", "value": 0.228}, {"measurement": "relative viability", "setting": "[17]; first compound 0.5 µM", "value": 0.243}, {"measurement": "relative viability", "setting": "[18]; first compound 0.005 µM", "value": 0.5}, {"measurement": "relative viability", "setting": "[18]; first compound 0.01581 µM", "value": 0.573}, {"measurement": "relative viability", "setting": "[18]; first compound 0.05 µM", "value": 0.406}, {"measurement": "relative viability", "setting": "[18]; first compound 0.1581 µM", "value": 0.526}, {"measurement": "relative viability", "setting": "[18]; first compound 0.5 µM", "value": 0.473}, {"measurement": "relative viability", "setting": "[19]; first compound 0.005 µM", "value": 0.96}, {"measurement": "relative viability", "setting": "[19]; first compound 0.01581 µM", "value": 1.1}, {"measurement": "relative viability", "setting": "[19]; first compound 0.05 µM", "value": 1.12}, {"measurement": "relative viability", "setting": "[19]; first compound 0.1581 µM", "value": 1.03}, {"measurement": "relative viability", "setting": "[19]; first compound 0.5 µM", "value": 1.03}, {"measurement": "relative viability", "setting": "[20]; first compound 0.005 µM", "value": 0.972}, {"measurement": "relative viability", "setting": "[20]; first compound 0.01581 µM", "value": 0.948}, {"measurement": "relative viability", "setting": "[20]; first compound 0.05 µM", "value": 0.901}, {"measurement": "relative viability", "setting": "[20]; first compound 0.1581 µM", "value": 0.946}, {"measurement": "relative viability", "setting": "[20]; first compound 0.5 µM", "value": 0.904}, {"measurement": "relative viability", "setting": "[21]; first compound 0.005 µM", "value": 0.919}, {"measurement": "relative viability", "setting": "[21]; first compound 0.01581 µM", "value": 1.29}, {"measurement": "relative viability", "setting": "[21]; first compound 0.05 µM", "value": 1.12}, {"measurement": "relative viability", "setting": "[21]; first compound 0.1581 µM", "value": 0.997}, {"measurement": "relative viability", "setting": "[21]; first compound 0.5 µM", "value": 1.08}]}
